Measurements taken from US9765039B2, “Biaryl derivatives as bromodomain inhibitors” (Zenith Epigenetics Ltd., priority 2012, dated 2017).

Assays:
Brd4 bromodomain 1 = target: T1, Brd4 bromodomain 1 (Homo sapiens, UniProt O60885); assay: Inhibition of tetra-acetylated histone H4 binding to BET bromodomains (TR-FRET); parameters: key: Active: Compounds with an IC50 value less than 30 μM were deemed to be active.; Not Active: Compounds with an IC50 value less than 30 μM were deemed to be active; details: first bromodomain of Brd4, tetra-acetylated histone H4 peptide
T1 construct: made in house; host or cells: E. coli BL21(DE3)
Outline: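 TR-FRET with N-terminally His-tagged bromodomains (200 nM, E. coli-expressed, Ni affinity and SEC-purified) and biotinylated tetra-acetylated histone H4 peptide (25–50 nM), detected with Eu-cryptate streptavidin and XL665 anti-His antibody. Buffer 30 mM HEPES pH 7.4, 320 mM KF, 0.08% BSA, 0.2% DMSO; 2 h RT. IC50 from decrease in 665/620 nm ratio.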

hApoA-1 mRNA = assay: Up-regulation of hApoA-1 mRNA transcription in Huh7 cells; format: cell-based, human; parameters: key: Active: Compounds with an EC170 value less than 30 μM are deemed to be active.; Not Active: Compounds with an EC170 value less than 30 μM are deemed to be active; details: 48 hrs treatment, ApoA-I mRNA
Method: In this example, ApoA-I mRNA in tissue culture cells was quantitated to measure the transcriptional up-regulation of ApoA-I when treated with a compound of the present disclosure.
Huh7 cells ([…] per well) were plated in a 96-well plate using 100 μL DMEM per well, (Gibco DMEM supplemented with penicillin/streptomycin and 10% FBS), 24 h before the addition of the compound of interest. After 48 hrs treatment, the spent media was removed from the Huh-7 cells and placed on ice (for immediate use) or at −80° C. (for future use) with the “LDH cytotoxicity assay Kit II” from Abcam. The cells remaining in the plate were rinsed with 100 μL PBS.
Then 85 μL of cell lysis solution was added to each well and incubated for 5-10 minutes at room temperature, to allow for complete cell lysis and detachment. mRNA was then prepared using the “mRNA Catcher PLUS plate” from Life Technologies, according to the protocol supplied. After the last wash, as much wash buffer as possible was aspirated without allowing the wells to dry. Elution Buffer (E3, 80 μL) was then added to each well. mRNA was then eluted by incubating the mRNA Catcher PLUS plate with Elution Buffer for 5 minutes at 68° C., and then 1 minute at 4° C. Catcher plates with mRNA eluted were kept on ice for use or stored at −80° C.
The eluted mRNA isolated was then used in a one-step real-time PCR reaction, using components of the Ultra Sense Kit together with Life Technologies primer-probe mixes. Real-time PCR data was analyzed, using the Ct values, to determine the fold induction of each unknown sample, relative to the control (that is, relative to the control for each independent DMSO concentration).
Compounds with an EC170 value less than 30 μM are deemed to be active.

Human AML MV-4-11 cells = assay: Inhibition of cell proliferation in cancer cell lines (CellTiter Aqueous One); format: cell-based; parameters: key: Active: Compounds with an IC50 value less than 30 μM were deemed to be active.; Not Active: Compounds with an IC50 value less than 30 μM were deemed to be active; details: 72 hours
Outline: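 Exponentially growing MV-4-11 cells were treated immediately with two-fold compound dilutions from 30 µM to 0.2 µM in triplicate for 72 h at 37 °C. Viability was read by MTS (CellTiter Aqueous One) absorbance at 490 nm after 3-4 h; % proliferation vs DMSO gave IC50.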

c-myc = assay: Inhibition of c-myc expression in cancer cell lines (mRNA, real-time PCR); format: cell-based; parameters: key: Active: Compounds with an IC50 value less than 30 μM were deemed to be active; details: Human AML MV4-11 cells, 3 hours
Outline: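 MV4-11 cells (2.5×10^4) exposed to compound or 0.1% DMSO for 3 h at 37° C, then lysed for mRNA isolation. c-myc and cyclophilin cDNAs co-amplified by duplex RT real-time PCR. IC50 from dose-response curve.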

hIL-6 mRNA = assay: Inhibition of hIL-6 mRNA transcription in LPS-stimulated U937 macrophages; format: cell-based, human; parameters: key: Active: Compounds with an IC50 value less than 30 μM are deemed to be active; details: U937 differentiated into macrophages, 1 h pretreatment, lipopolysaccharide 3 h
Outline: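 U937 cells differentiated 3 days with 60 ng/mL PMA, pretreated 1 h with compound, then stimulated with […] E. coli LPS for 3 h at 37° C. hIL-6 mRNA quantified by one-step real-time RT-PCR, Ct normalised to internal control and expressed as fold induction relative to control.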

SMILES	FRET activity (IC50 < 30 μM) (Brd4 bromodomain 1)	ApoA-1 Activity (EC170 < 30 μM) (hApoA-1 mRNA)	cell proliferation activity (IC50 < 30 μM) (Human AML MV-4-11 cells)	c-myc activity (IC50 < 30 μM) (c-myc)	IL-6 activity (IC50 < 30 μM) (hIL-6 mRNA)
CCS(=O)(=O)c1ccc(-c2nc(-c3nc4cc(OC)cc(OC)c4c(=O)[nH]3)ccc2OCCN2CCCC2)cc1 [Example 42, 2-(6-(4-(Ethylsulfonyl)phenyl)-5-(2-(pyrrolidin-1-yl)ethoxy)pyridin-2-yl)-5,7-dimethoxyquinazolin-4(3H)-one]	Active	Not Active	Active	Active	Active
COc1cc(OC)c2c(=O)[nH]c(-c3ccc(OC4CNC4)c(-c4ccc(C#N)cc4)c3)nc2c1 [Example 18, 2′-(Azetidin-3-yloxy)-5′-(5,7-dimethoxy-4-oxo-3,4-dihydroquinazolin-2-yl)-[1,1′-biphenyl]-4-carbonitrile]	Active	Active	Not Active	Active	Active
COc1cc(OC)c2c(=O)[nH]c(-c3ccc(OCCO)c(-c4ccc(C(=O)N(C)C)cc4C)n3)nc2c1 [Example 3, 4-(6-(5,7-Dimethoxy-4-oxo-3,4-dihydroquinazolin-2-yl)-3-(2-hydroxyethoxy)pyridin-2-yl)-N,N,3-trimethylbenzamide]	Active	Active	Not Active	Not Active	Active
COc1cc(F)cc2nc(-c3ccc(OC4CN(C)C4)c(-c4ccc([S+](C)[O-])cc4)c3)[nH]c(=O)c12 (centres unmarked) [Example 15, 7-Fluoro-5-methoxy-2-(6-((1-methylazetidin-3-yl)oxy)-4′-(methylsulfinyl)-[1,1′-biphenyl]-3-yl)quinazolin-4(3H)-one]	Active	Active	Not Active	Active	Active
COc1cc(OC)c2c(=O)[nH]c(-c3ccc(OCCNC(C)C)c(-c4ccc(C(=O)N(C)C)cc4Cl)n3)nc2c1 [Example 6, 3-Chloro-4-(6-(5,7-dimethoxy-4-oxo-3,4-dihydroquinazolin-2-yl)-3-(2-(isopropylamino)ethoxy)pyridin-2-yl)-N,N-dimethylbenzamide]	Active	Active	Active	Active	Active
COc1cc(OC)c2c(=O)[nH]c(-c3ccc(OCCNC(C)C)c(-c4ccc([S+](C)[O-])cc4)c3)nc2c1 (centres unmarked) [Example 17, 2-(6-(2-(Isopropylamino)ethoxy)-4′-(methylsulfinyl)biphenyl-3-yl)-5,7-dimethoxyquinazolin-4(3H)-one]	Active	Active	Active	Active	Active
COc1cc(OC)c2c(=O)[nH]c(-c3ccc(OC4CN(C)C4)c(-c4ccc(C#N)cc4)c3)nc2c1 [Example 19, 5′-(5,7-Dimethoxy-4-oxo-3,4-dihydroquinazolin-2-yl)-2′-((1-methylazetidin-3-yl)oxy)-[1,1′-biphenyl]-4-carbonitrile]	Active	Active	Not Active	Active	Active
COc1cc(OC)c2c(=O)[nH]c(-c3ccc(OCCNC(C)C)c(-c4ccc(C(=O)N(C)C)cc4C)n3)nc2c1 [Example 4, 4-(6-(5,7-dimethoxy-4-oxo-3,4-dihydroquinazolin-2-yl)-3-(2-(isopropylamino)ethoxy)pyridin-2-yl)-N,N,3-trimethylbenzamide]	Active	Active	Active	Active	Active
CCS(=O)(=O)c1ccc(-c2nc(-c3nc4cc(OC)cc(OC)c4c(=O)[nH]3)ccc2OCCN2CCOCC2)cc1 [Example 43, 2-(6-(4-(Ethylsulfonyl)phenyl)-5-(2-morpholinoethoxy)pyridin-2-yl)-5,7-dimethoxyquinazolin-4(3H)-one]	Active	Active	Active	Active	Active
COc1cc(OC)c2c(=O)[nH]c(-c3ccc(OCCO)c(-c4ccc(C(=O)N(C)C)cc4Cl)n3)nc2c1 [Example 5, 3-Chloro-4-(6-(5,7-dimethoxy-4-oxo-3,4-dihydroquinazolin-2-yl)-3-(2-hydroxyethoxy)pyridin-2-yl)-N,N-dimethylbenzamide]	Active	Active	Active	Active	Active
COc1cc(OC)c2c(=O)[nH]c(-c3ccc(OCCO)c(-c4ccc(C(=O)N(C)C)cc4)n3)nc2c1 [Example 23, 4-(6-(5,7-Dimethoxy-4-oxo-3,4-dihydroquinazolin-2-yl)-3-(2-hydroxyethoxy)pyridin-2-yl)-N,N-dimethylbenzamide]	Active	Active	Not Active	Active	Active
COc1cc(OC)c2c(=O)[nH]c(-c3ccc(OCCNC(C)C)c(-c4ccc(S(C)(=O)=O)cc4)c3)nc2c1 [Example 44, 2-(6-(2-(Isopropylamino)ethoxy)-4′-(methylsulfonyl)-[1,1′-biphenyl]-3-yl)-5,7-dimethoxyquinazolin-4(3H)-one]	Active	Active	Active	Active	Active
COc1cc(OC)c2c(=O)[nH]c(-c3ccc(OCCO)c(-c4ccc(S(C)(=O)=O)cc4C)n3)nc2c1 [Example 39, 2-(5-(2-Hydroxyethoxy)-6-(2-methyl-4-(methylsulfonyl)phenyl)pyridin-2-yl)-5,7-dimethoxyquinazolin-4(3H)-one]	Active	Active	Active	Active	Active
